Test results taken from patent publication US20230097753A1, “ALPHA-HYDROXYLATED FATTY-ACID METABOLITES, MEDICAL USES AND USE AS BIOMARKERS” (UNIVERSITAT DE LES ILLES BALEARS, priority 2020, published 2023).

Tested on: 5xFAD mice
Experiment: Radial arm maze test in 5xFAD model of Alzheimer's disease
Type: in vivo, mouse
Settings: 20 mg/kg/day, 3 to 7 months of age
Procedure: FIG. 6. A, B and C: Chronic treatment with HPA acid or its prodrug, DHA-H, prevents cognitive decline typical of Alzheimer's disease in the murine transgenic model (5xFAD). Cognitive assessment was performed by the 8-arm Radial Labyrinth test. The animals received treatment between 3 and 7 months of age and the test was performed during the last month of treatment. During this test, the total errors made during the test (A), the reference memory errors (RME) (B) and the working memory errors (WME) (C) were taken into account. Each column represents the mean±SEM of errors during the last week of the radial labyrinth test. The black columns represent the errors made by WT mice. The blank columns represent the errors made by the 5xFAD transgenic mice treated with the vehicle (5% ethanol). Striped columns represent errors made by 5xFAD mice treated with DHA-H (20 mg/kg/day). Boxed columns represent errors made by 5xFAD mice treated with HPA (20 mg/kg/day). […] The bars represent the mean±standard error for each treatment condition and the statistical analysis was performed by unidirectional ANOVA and the Tukey multiple evaluation test: *p<0.05 when compared to healthy control (WT) and #p<0.05 when compared to 5xFAD control condition (treated with the vehicle). […]

Row | SMILES | Cognition in 8-arm radial labyrinth test (total errors, RME, WME)
1 | CC/C=C\C/C=C\C/C=C\C/C=C\C/C=C\CCCCC(=O)O [HPA, (6Z,9Z,12Z,15Z,18Z)-heneicosa-6,9,12,15,18-pentaenoic acid] | cognitive improvement
2 | CCC=CCC=CCC=CCC=CCC=CCC=CCC(O)C(=O)O (centres unmarked) [DHA-H, 2-hydroxy-drocosahexaenoic acid] | cognitive improvement
